Laboratory results from PMC2685736, “Conservation of a conformational switch in RadA recombinase from Methanococcus maripaludis” (Acta Crystallographica Section D: Biological Crystallography, 2009).

Tests used:
MmRadA [1] = target: T1, MmRadA (Methanococcus maripaludis, UniProt P0CW58); test: X-ray crystallography, […]-2.[…] A; format: binding; settings: Mg2+, pH 7.9; 0.4 M NH4Cl (3ewa), 0.4 M KCl (3ew9) or 0.1 M NH4Cl (3etl); ATPase site at the monomer interface
T1 construct: gene radA; full open reading frame in pET28a (NcoI/XhoI), expressed in E. coli BL21 Rosetta2 (DE3); no tag mentioned; helical filament, nucleotide buried between adjacent monomers; P-loop Gly105-Thr112, His280, Asp302

MmRadA [2] = target: T1, MmRadA; test: Malachite Green phosphate release (ATPase); format: biochemical; settings: 5 mM ATP, 10 mM MgCl2, pH 7.4, 100 mM KCl, poly-(dT)36 ssDNA; mere turnover

T1 sequence (P0CW58 whole entry): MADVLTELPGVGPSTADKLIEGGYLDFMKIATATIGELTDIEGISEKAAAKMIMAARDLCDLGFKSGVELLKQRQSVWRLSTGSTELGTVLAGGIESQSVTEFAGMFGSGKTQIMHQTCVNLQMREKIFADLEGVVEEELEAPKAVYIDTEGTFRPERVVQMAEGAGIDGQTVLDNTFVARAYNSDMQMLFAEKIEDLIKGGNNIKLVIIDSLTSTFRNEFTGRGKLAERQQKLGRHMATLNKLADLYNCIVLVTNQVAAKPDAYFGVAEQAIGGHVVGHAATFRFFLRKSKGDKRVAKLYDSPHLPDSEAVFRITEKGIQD

## Nc1ncnc2c1ncn2[C@@H]1O[C@H](COP(=O)(O)OP(=O)(O)NP(=O)(O)O)[C@@H](O)[C@H]1O [AMPPNP]
MmRadA [1]
  X-ray crystallography, 2.0-2.4 A: The nonhydrolyzable ATP analogue AMPPNP is buried between the MmRadA monomers as expected.

## Nc1ncnc2c1ncn2[C@@H]1O[C@H](COP(=O)(O)OP(=O)(O)OP(=O)(O)O)[C@@H](O)[C@H]1O [ATP]
MmRadA [2]
  Malachite Green phosphate release (ATPase): the M. maripaludis protein also actively catalyzed ATP hydrolysis in the presence of potassium
